Reference: patent US20240197666A1, “DITERPENOID COMPOUNDS THAT ACT ON PROTEIN KINASE C (PKC)” (K-Gen Therapeutics, Inc., priority 2021, published 2024)
Where two headings read alike, the source gives them in different places.

Key:
A549 cell line = experiment: Proliferation of A549 (CellTiter Glo); type: cell-based; settings: Homo sapiens, read-out: IC50 μM (A549 Cell Line)
Protocol: (§1) The diterpenoid compounds were tested in A549, a non-small cell lung cancer cell line harboring a K-Ras activating mutation. Briefly, A549 cells at a density of 1,000 cells/well were seeded in 96-well plates and incubated at 37° C. for 24 hours. A series of different concentrations of compound stocks (500×) were prepared by 3-fold serial dilution in DMSO. These compounds were further diluted in culture media and then added to cells so that the final DMSO concentration was not exceeding 0.25%. After 96 hours of incubation, 50 μL of CellTiter Glo reagent (Promega) was added to each well and luminescence was measured after 10 minutes using EnVision (PerkinElmer). Luminescence from cells treated with DMSO alone was set as Max and % of inhibition was calculated as follows: Inhibition %=(Max-Sample value)/Max×100. Data was analyzed using XL-fit software (ID Business Solutions Ltd.) and IC50, relative IC50, and % of top inhibition was calculated. Some of the compounds in this disclosure were very potent in blocking proliferation of A549 lung cancer cells at low nM range. In addition, potency of inhibiting A549 proliferation correlated well with its binding affinity to PKCs for this series of compounds. In other words, higher affinity binders had stronger inhibitory effects on A549 proliferation. This further support the notion that activation, rather than inhibition, of certain PKC isoforms is required to block proliferation of cancer cells, some of which may harbor K-Ras mutations. This is in sharp contrast to previous literature and common belief that inhibition of PKC is necessary to block cancer cell growth (Kang, 2014, New Journal of Science, 2014:1-36). Data presented here is in agreement with recent findings that many loss-of-function but not gain-of-function mutations of PKC isoforms have been identified in many human cancers (Antal et al., 2015, Cell, 160:489-502).

C1b domain of human PKCδ = target: T1, C1b domain of human PKCδ (Homo sapiens, UniProt Q05655); experiment: biochemical; type: binding; settings: 3H-PDBu competition
T1 construct: Genes encoding C1b domains of human PKCα, δ, ε, θ, and PKD1 (PKCμ) were synthesized; made in house; host or cells: E. coli BL21(DE3)
Protocol: (§2) Compounds described in this disclosure were tested for binding affinity to C1b domain of PKC isoforms. Compound binding affinity to C1b domain of PKC isoforms was derived from competitive binding assay using radioactive tracer ^3H-PDBu and recombinant GST-C1b or full-length of human PKC proteins based on modified procedures from Methods in Molecular Biology, vol.
(§3) Genes encoding C1b domains of human PKCα, δ, ε, θ, and PKD1 (PKCμ) were synthesized and inserted into pGEX-2TK or pGEX-4T1 vectors for expression and production of GST-C1b proteins in E. coli BL21(DE3) via IPTG induction. The target proteins were purified by glutathione sepharose 4B and followed by ion exchange chromatography if needed to achieve purity >70%. Aliquots of the purified proteins were stored at −80 degree for binding assay (storage buffer: 20 mM Tris pH 8.0, 200 mM NaCl, 10% glycerol, 1 mM DTT).
(§4) The plate was incubated at 37° C. on a shaker at 300 rpm for 10 minutes and then put on ice for 20 minutes. […] The bottom of the filter plate was sealed and 50 μL of MicroScint-20 (PerkinElmer) cocktail was added to each well. ^3H-PDBu trapped in each well was counted using PerkinElmer MicroBeta2 Reader. Data were analyzed using GraphPad Prism5 with the model “log(inhibitor) vs. response-variable slope” to fit the IC50, and then IC50 was transformed to Ki using Cheng-Prusoff equation: Ki=IC50/(1+added radio ligand/Kd). Kd is the binding affinity of each protein preparation to ^3H-PDBu, determined experimentally.

[1] = target: T2, C1b domain of human PKD1 (PKCμ) (Homo sapiens, UniProt Q15139); experiment: Competitive 3H-PDBu binding assay, C1b domain of PKD1 (PKCμ); settings: 3H-PDBu competition
T2 construct: Genes encoding C1b domains of human PKCα, δ, ε, θ, and PKD1 (PKCμ) were synthesized; made in house; host or cells: E. coli BL21(DE3)
T2 sequence (Q15139 270-320 limits assumed): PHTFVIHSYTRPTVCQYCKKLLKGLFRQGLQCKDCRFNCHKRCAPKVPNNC
Protocol: as §2, §3, §4

Mino (Lymphoma) = experiment: Proliferation of Mino; type: cell-based
Protocol: as §1
(§5) The compounds in this disclosure were tested for their potency in blocking proliferation of a few other cancer cells lines, including K-Ras mutant pancreatic cell lines Panc2.13 and KP-4, leukemia cell line HL-60, and lymphoma cell lines Namalwa and Mino. Similar procedures as in Example 67 were followed. Initial cell numbers seeded in 96-well plates were different for different cell lines: 3000 cells/well for Panc2.13; 800-1000 cells/well for KP-4; 5000 cells/well for HL-60; 5000-10000 cells/well for Namalwa and Mino. A ratio of (IC50 of K101)/(IC50 of compound) (data in parenthesis in Table 5) was used to normalize the compound potency from different assay batches to a common comparator K101.

Namalwa (Lymphoma) = experiment: Proliferation of Namalwa; type: cell-based; settings: for IC50: read-out: IC50 Namalwa (Lymphoma)
Protocol: as §1, §5

C1b domain of human PKCε = target: T3, C1b domain of human PKCε (Homo sapiens, UniProt Q02156); experiment: biochemical; type: binding; settings: 3H-PDBu competition
T3 construct: Genes encoding C1b domains of human PKCα, δ, ε, θ, and PKD1 (PKCμ) were synthesized; made in house; host or cells: E. coli BL21(DE3)
Protocol: as §2, §3, §4

[2] = system: NFκB-driven transcription in HeLa-NFκB luciferase reporter cell line; experiment: NFκB luciferase reporter assay; settings: Homo sapiens, HeLa, 16 h, read-out: NFκB-luc HeLa cells EC50 (μM)
HL-60 (Leukemia) = experiment: Proliferation of HL-60; type: cell-based
Protocol: as §1, §5

Hela cells = experiment: In vitro scratch wound healing assay; type: cell-based; settings: 24h
Protocol: Scratch wound healing assay creates a gap by scratching a confluent monolayer of cells to mimic a wound and then measures the ability of cells to fill up the gap (wound) in the presence of DMSO or test compounds. 1.2-1.5×10^5 Hela cells in 1 mL media RPMI-1640 with 10% FBS were seeded in 24-well plates. Cells were starved for overnight in the same media without FBS when cells became confluent. After starvation, a scratch was made in the middle of the well and the plates were washed three times to remove detached cells. DMSO or different concentrations of compounds were diluted and added to the cells. The assay plates were put into Incucyte S3 and scanned with 4× scanner setting regularly. The imaging results were exported and the wound area was analyzed by ImageJ. Wound healing or closure was calculated by the following formula: wound healing %=(wound area at 0h−wound area at 24h)/wound area 0h*100%. Relative wound healing was calculated by dividing wound healing % of compound treatment to that of DMSO*100%.

T1 sequence (Q05655 230-280 limits assumed): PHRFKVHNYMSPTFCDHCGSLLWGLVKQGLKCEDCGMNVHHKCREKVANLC
T3 sequence (Q02156 242-292 limits assumed): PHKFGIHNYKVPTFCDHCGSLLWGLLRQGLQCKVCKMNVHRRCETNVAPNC

Compound | IC50 (A549 cell line; A549, 96 h) [µM] | Ki (C1b domain of human PKCδ) [nM] | Ki [1] [nM] | other results
CC1=C[C@H]2[C@@]3(O)[C@H](C)C[C@]4(OC(=O)[C@@H](N)CCCCCCCCc5ccccc5)[C@H]([C@@H]3C=C(CO)C[C@]2(O)C1=O)C4(C)C | 0.001 to 0.01 | 10 to 30 |  | 
CC1=C[C@H]2[C@@]3(O)[C@H](C)C[C@]4(OC(=O)CC5CC6(CNC6)C5)[C@H]([C@@H]3C=C(CO)C[C@]2(O)C1=O)C4(C)C | > 30 |  | 10 to 30 | 
CC1=C[C@H]2[C@@]3(O)[C@H](C)C[C@]4(OC(=O)Cc5ccccc5)[C@H]([C@@H]3C=C(CO)C[C@]2(O)C1=O)C4(C)C |  |  |  | ratio (IC50 of K101)/(IC50 of compound) Mino (Mino (Lymphoma)): 15.6; IC50 (Mino (Lymphoma); Homo sapiens, MINO; read-out: IC50 Mino (Lymphoma)): 1 to 10 nM; IC50 (A549 cell line; A549, 96 hours, CellTiter Glo): 0.03 to 0.06 µM; ratio (IC50 of K101)/(IC50 of compound) Namalwa (Namalwa (Lymphoma)): 3.29; IC50 (Namalwa (Lymphoma)): 10 to 30 nM; Ki (C1b domain of human PKCε): 10 to 30 nM; EC50 [2]: 0.03 to 0.06 µM; ratio (IC50 of K101)/(IC50 of compound) HL-60 (HL-60 (Leukemia)): 18; IC50 (HL-60 (Leukemia); Homo sapiens, HL-60; read-out: IC50 HL-60 (Leukemia)): 10 to 30 nM
CC1=C[C@H]2[C@@]3(O)[C@H](C)C[C@]4(OC(=O)CCCCCCCCCCCC(=O)O)[C@H]([C@@H]3C=C(CO)C[C@]2(O)C1=O)C4(C)C | 10 to 30 |  | 60 to 100 | 
CCCC[C@H](N)C(=O)O[C@@]12C[C@@H](C)[C@@]3(O)[C@@H](C=C(CO)C[C@]4(O)C(=O)C(C)=C[C@@H]34)[C@@H]1C2(C)C | 0.6 to 1 | 10 to 30 |  | 
CC1=C[C@H]2[C@@]3(O)[C@H](C)C[C@]4(OC(=O)[C@H](N)CC5CCCCC5)[C@H]([C@@H]3C=C(CO)C[C@]2(O)C1=O)C4(C)C | 0.2 to 0.6 | 10 to 30 |  | 
CN[C@@H](CC1CCCCC1)C(=O)O[C@@]12C[C@@H](C)[C@@]3(O)[C@@H](C=C(CO)C[C@]4(O)C(=O)C(C)=C[C@@H]34)[C@@H]1C2(C)C | 0.2 to 0.6 | 10 to 30 |  | 
CC1=C[C@H]2[C@@]3(O)[C@H](C)C[C@]4(OC(=O)[C@@H](N)C(C)(C)c5ccc(C(F)(F)F)cc5)[C@H]([C@@H]3C=C(CO)C[C@]2(O)C1=O)C4(C)C | 0.03 to 0.06 |  |  | ratio (IC50 of K101)/(IC50 of compound) Mino (Mino (Lymphoma)): 15.7; IC50 (Mino (Lymphoma); Homo sapiens, MINO, read-out: IC50 Mino (Lymphoma)): 1 to 10 nM; ratio (IC50 of K101)/(IC50 of compound) Namalwa (Namalwa (Lymphoma)): 3.5; IC50 (Namalwa (Lymphoma)): 10 to 30 nM; Ki (C1b domain of human PKCε): 10 to 30 nM; EC50 [2]: 0.06 to 0.1 µM; Relative wound healing to control (%) (Hela cells; 20 nM): 213%; Relative wound healing to control (%) (Hela cells; 60 nM): 134%; Relative wound healing to control (%) (Hela cells; 200 nM): 201%; ratio (IC50 of K101)/(IC50 of compound) HL-60 (HL-60 (Leukemia)): 12; IC50 (HL-60 (Leukemia); Homo sapiens, HL-60, read-out: IC50 HL-60 (Leukemia)): 10 to 30 nM
CC1=C[C@H]2[C@@]3(O)[C@H](C)C[C@]4(OC(=O)[C@H](N)CCc5ccc(C(F)(F)F)cc5)[C@H]([C@@H]3C=C(CO)C[C@]2(O)C1=O)C4(C)C | 0.2 to 0.6 |  | 10 to 30 | 
CC1=C[C@H]2[C@@]3(O)[C@H](C)C[C@]4(OC(=O)C[C@H](N)c5ccccc5)[C@H]([C@@H]3C=C(CO)C[C@]2(O)C1=O)C4(C)C | 1 to 2 |  | 10 to 30 | 
CC1=C[C@H]2[C@@]3(O)[C@H](C)C[C@]4(OC(=O)[C@@H](O)Cc5ccccc5)[C@H]([C@@H]3C=C(CO)C[C@]2(O)C1=O)C4(C)C | 0.2 to 0.6 |  | 10 to 30 | 
CC1=C[C@H]2[C@@]3(O)[C@H](C)C[C@]4(OC(=O)[C@H](N)CCCc5ccccc5)[C@H]([C@@H]3C=C(CO)C[C@]2(O)C1=O)C4(C)C | 0.2 to 0.6 |  | 10 to 30 | 
CC1=C[C@H]2[C@@]3(O)[C@H](C)C[C@]4(OC(=O)C[C@@H](N)CCc5ccccc5)[C@H]([C@@H]3C=C(CO)C[C@]2(O)C1=O)C4(C)C | 0.6 to 1 | 10 to 30 |  | 
CC1=C[C@H]2[C@@]3(O)[C@H](C)C[C@]4(OC(=O)C[C@@H](N)Cc5ccccc5)[C@H]([C@@H]3C=C(CO)C[C@]2(O)C1=O)C4(C)C | 1 to 2 |  | 10 to 30 | 
CC1=C[C@H]2[C@@]3(O)[C@H](C)C[C@]4(OC(=O)[C@@H](N)CC5CC5)[C@H]([C@@H]3C=C(CO)C[C@]2(O)C1=O)C4(C)C | 2 to 5 | 60 to 100 |  | 
CC1=C[C@H]2[C@@]3(O)[C@H](C)C[C@]4(OC(=O)CCc5scnc5C)[C@H]([C@@H]3C=C(CO)C[C@]2(O)C1=O)C4(C)C | 0.2 to 0.6 |  | 10 to 30 | 
CC1=C[C@H]2[C@@]3(O)[C@H](C)C[C@]4(OC(=O)[C@@H](N)Cc5c[nH]c6ccccc56)[C@H]([C@@H]3C=C(CO)C[C@]2(O)C1=O)C4(C)C | 10 to 30 | 10 to 30 |  | 
CC1=C[C@H]2[C@@]3(O)[C@H](C)C[C@]4(OC(=O)C[C@H](N)Cc5ccccc5)[C@H]([C@@H]3C=C(CO)C[C@]2(O)C1=O)C4(C)C | 1 to 2 | 10 to 30 |  | 
CC1=C[C@H]2[C@@]3(O)[C@H](C)C[C@]4(OC(=O)[C@H](N)Cc5c[nH]c6ccccc56)[C@H]([C@@H]3C=C(CO)C[C@]2(O)C1=O)C4(C)C | 10 to 30 |  | 10 to 30 | 
CC1=C[C@H]2[C@@]3(O)[C@H](C)C[C@]4(OC(=O)[C@H](N)CCCCCCc5ccc(C(F)F)cc5)[C@H]([C@@H]3C=C(CO)C[C@]2(O)C1=O)C4(C)C | 0.1 to 0.2 | 10 to 30 | 10 to 30 | 
CSC[C@H](N)C(=O)O[C@@]12C[C@@H](C)[C@@]3(O)[C@@H](C=C(CO)C[C@]4(O)C(=O)C(C)=C[C@@H]34)[C@@H]1C2(C)C | 5 to 10 |  | 60 to 100 | 
